Experimental data taken from patent US11020400B2, “Tetrahydropyranyl amino-pyrrolopyrimidinone and methods of use thereof” (ArQule, Inc., priority 2015, dated 2021).

Columns and labels:
TMD-8 cells = assay: Anti-Proliferation Assay (MTS), TMD-8 cells; format: cell-based; conditions: Homo sapiens, TMD8, treated for 72 hours, MTS cell survival
Method: (§1) Cell survival is determined by a MTS assay. Briefly, cells (i.e., TMD-8 cells or Rec-1 cells) are plated in a 96-well plate, cultured in complete growth medium, and then treated with various drugs and drug combinations. MTS/PMS is added and incubated, followed by assessment of cell viability using the microplate reader. Data is normalized to untreated controls and analyzed with Microsoft Excel.
(§2) Cell survival was determined by the MTS assay. Briefly, cells (i.e., TMD-8 cells or Rec-1 cells) were plated in a 96-well plate at 2,000-10,000 cells per well, cultured for 24 hours in complete growth medium, and then treated with various drugs and drug combinations for 72 hours. MTS/PMS was added and incubated for 4 hour, followed by assessment of cell viability using the microplate reader (absorbance at 490 nm). Data were normalized to untreated controls and analyzed with Microsoft Excel.

Rec-1 cells = assay: Anti-Proliferation Assay (MTS), Rec-1 cells; format: cell-based; conditions: Homo sapiens, Rec1, treated for 72 hours, MTS cell survival
Method: as §1, §2

Structure (SMILES): O=C(c1ccc(Oc2ccccc2)cc1Cl)c1c[nH]c2ncnc(N[C@@H]3CC[C@@H](CO)OC3)c12 [Compound (I), (2-chloro-4-phenoxyphenyl)(4-(((3R,6S)-6-(hydroxymethyl)tetrahydro-2H-pyran-3-yl)amino)-7H-pyrrolo[2,3-d]pyrimidin-5-yl)methanone]
- IC50 (TMD-8 cells): 0.13 ± 0.06 µM
- IC50 (Rec-1 cells): 0.18 ± 0.07 µM
